Laboratory results taken from patent publication US20020142347A1, “Biosensor” (BIOSENSOR ApS, priority 2000, published 2002).

Legend:
[1] = molecular target: T1, FACI-24 (Bos taurus, UniProt P07107, M25C); assay: Fluorescence emission change of FACI-24 on titration with CoA and acyl-CoA esters; assay type: binding, bovine
T1 construct: made in house; host or cells: E. coli BL21(DE3)pLysS, pET3a vector
T1 sequence (P07107 2-87 M25C): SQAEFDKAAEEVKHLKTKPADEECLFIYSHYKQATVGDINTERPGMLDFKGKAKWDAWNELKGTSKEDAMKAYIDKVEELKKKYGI
Description: Quantitative determination of binding affinities (KD) were performed by isothermal titration micro calorimetry as previously described (Faergeman et. al., 1996; Biochemistry 35, 14118-14126). Qualitative evaluation of relative binding affinities were determined by isoelectrical focusing using the Pharmacia Fast Gel system according to the prescriptions given by the manufacture. Fluorescence emission changes induced by acyl-CoA binding to badan modified protein were determined as follows: 5 μl portions of acyl-CoAs were added from stock solutions disolved in binding buffer, (10 mM Hepes, 150 mM NaCL, 1 mM NaHPO4, pH 7.4) containing 3.4 μM Badan derivatized protein to a 1 ml 3.4 μM solution of the Badan derivatized ACBP in the same buffer. The fluorescence emission was measured on a SPEX FLOUROLOG (Industries Inc, Edison N.J., USA) with excitation at 400 nm and emission scan from 400 nm to 550 nm. The concentration of acyl-CoA in the aqueous phase was determined from the fluorescence emission sensitivities at 495 and 470 nm repectively essentially by the method described by (Grynkiewickz et. al.,1985, J. Biol. Chem. 260, 3440-3450) according to which:
Fluorescence titration emission spectra from 415 nm to 550 nm (excitation at 400 nm) were performed for CoA, C4:0-, C8:0-, C12:0-, C16:0-, and C20:0-CoA with all four mutated and badan modified proteins.
The emission maximum of FACI-24 without ligand added was 510 nm and titration with CoA, C4:0-, C8:0-, C12:0-, […], C16:0- and C20:0-CoA caused 0, 16, 34, 42, 46 and 46 nm downshift in emission maximum, respectively (results not shown). C16:0-CoA induced a 5,5 fold increase in emission at 464 nm (FIG. 10).
(§1) Titration of FACI with acyl-CoAs was done using a SPEX FLOUROLOG (Industries Inc, Edison N.J., USA) with excitation at 387 nm and emission at 460 nm, with both excitation and emission slits set to 4.5 nm. FACI (0.5-4.5 uM, as indicated) was dissolved in 1.5 ml binding buffer (10 mM HEPES 150 mM NaCl, 5 mM KCl, 1 mM Na2HPO4, pH 7.4) and titrated with a 10 μM acyl-CoA dissolved in binding buffer, with or without FACI added, as indicated. Fluorescence emission values (counts per second) measured without FACI added to the ligand stock solution were corrected for titrand dilution.

[2] = molecular target: T1, FACI-24; assay: Fluorescence titration equilibrium binding analysis of CoA and acyl-CoA esters to FACI-24; parameters: species or system bovine; conditions: FACI-24 (1.5 μM) titrated with increasing CoA and acyl-CoA concentration; fitted binding curves, emission 460 nm; read-out: Kd (nM) ± S.E.
Description: Development of a mathematical expression describing the relationship between acyl-CoA concentration and FACI-24 fluorescence was performed essentially as by Richieri et al 1992, J Biol Chem, 267:23495-23501. However, where ligand binding to ADIFAB induces both a fluorescence intensity increase around 505 nm and a fluorescence intensity decrease around 432 nm, ligand binding to FACI-24 only causes an increase in fluorescence around 460 nm.
Derivatisation of an expression for the fluorescence value as a function of the acyl-coA concentration was done using the Scatchard equation as a starting point: [formula]
which has been used to fit the titration data.
The curves represent the best fit analysis from two independent experiment calculated and normalized as described above. The FACI-24 binding affinity increases dramatically when the acyl-chain length increases from C8 to C10 and C12, a smaller but significant drop in Kd is seen by increasing chain length from C12 to C14. C14 to C18 saturated acyl-CoA esters and C18:1-CoA binds with similar and very high affinities to FACI-24. In >0.1 M salt, FACI-24 binds acyl-CoAs with higher affinity and similar specificity as native unmodified bovine ACBP. The Kd for binding of C12-CoA and C16-CoA to native ACBP is 40 and 2.0 nM, respectively (Fulcery et al Biochemical, 1997, 325:423-428; Færgeman et al 1996, Biochemistry, 35:14118-14126). FACI-24 is highly specific for binding long-chain acyl-CoA esters.
as §1
Up to four parameters were fitted in this way, these were B, representing the point of saturation on the X axis, H, representing the maximum fluorescence, i.e. the fluorescence at saturating concentration of acyl-CoA, L, the minimum fluorescence value, i.e. the fluorescence of FACI-24 alone in buffer, and K, the Kd value lor the acyl-CoA in question. Initial estimates for the fittable parameters were typically: B=1, H=maximum fluorescence value measured, L=minimum fluorescence value measured (at acyl-CoA-concentration=0), and K as judged from the raw data, typically from 0.0001 uM to 0.1 uM for acyl-CoA longer than C10:0-CoA.
For each acyl-CoA at least two titrations and fittings were performed. To consider two or more titrations of the same acyl-CoA together and obtain a Kd value using all these titrations, both axes of the raw data were standardised using the fitted values of B, H and L in this way:
X axis standard=(raw X axis values)/Bfitted
Y axis standard=[(raw Y axis values)−Lfitted]/[Hfitted−Lfitted]
In this way all Y axis values should come to lie between 0 and 1 and the X axis value should be 1 at the point of saturation (FACI-24:acyl-CoA 1:1). Such adjusted data were pooled and fitted using DataFit. Typically, both H and B fitted to values close to 1 and L fitted to values close to 0. K was typically fitted to values somewhere between the two values obtained for the raw data.
This could be overcome by removing B from the fittable parameters list and instead setting it to a constant value of 1 and fitting again. This was typically done for both the raw and the standardised data.

Fold increase in emission of FACI-24 at 464 nm ([1]; emission at 464 nm): 5,5 fold | Downshift in emission maximum of FACI-24 ([1]; emission maximum without ligand 510 nm, excitation 400 nm): 46 nm | Kd [2]: 0.65 ± 0.26 nM
Structure (SMILES): CCCCCCCCCCCCCCCC(=O)SCCNC(=O)CCNC(=O)[C@H](O)C(C)(C)COP(=O)(O)OP(=O)(O)OC[C@H]1O[C@@H](n2cnc3c(N)ncnc32)[C@H](O)[C@@H]1OP(=O)(O)O [C16:0-CoA, palmitoyl-CoA]
